US8178555B2, “Apoptosis signal-regulating kinase 1 inhibitors” (Takeda Pharmaceutical Company Limited, priority 2009, dated 2012)

molecular target: T1, ASK1 (Homo sapiens, UniProt Q99683); assay: Scintillation assay for measuring the inhibitory effect against ASK1 (myelin basic protein substrate, [γ-32P]ATP); format: biochemical; details: Table 1, assay of Example A and B, read-out: Enzyme Activity IC50
T1 construct: a 2.2 kb DNA fragment containing an ASK1 gene was recovered from the gel; FLAG (N); made in house; host or cells: Sf-21 insect cells (recombinant baculovirus, pFASTBAC1)
T1 sequence (Q99683 649-1374 limits assumed): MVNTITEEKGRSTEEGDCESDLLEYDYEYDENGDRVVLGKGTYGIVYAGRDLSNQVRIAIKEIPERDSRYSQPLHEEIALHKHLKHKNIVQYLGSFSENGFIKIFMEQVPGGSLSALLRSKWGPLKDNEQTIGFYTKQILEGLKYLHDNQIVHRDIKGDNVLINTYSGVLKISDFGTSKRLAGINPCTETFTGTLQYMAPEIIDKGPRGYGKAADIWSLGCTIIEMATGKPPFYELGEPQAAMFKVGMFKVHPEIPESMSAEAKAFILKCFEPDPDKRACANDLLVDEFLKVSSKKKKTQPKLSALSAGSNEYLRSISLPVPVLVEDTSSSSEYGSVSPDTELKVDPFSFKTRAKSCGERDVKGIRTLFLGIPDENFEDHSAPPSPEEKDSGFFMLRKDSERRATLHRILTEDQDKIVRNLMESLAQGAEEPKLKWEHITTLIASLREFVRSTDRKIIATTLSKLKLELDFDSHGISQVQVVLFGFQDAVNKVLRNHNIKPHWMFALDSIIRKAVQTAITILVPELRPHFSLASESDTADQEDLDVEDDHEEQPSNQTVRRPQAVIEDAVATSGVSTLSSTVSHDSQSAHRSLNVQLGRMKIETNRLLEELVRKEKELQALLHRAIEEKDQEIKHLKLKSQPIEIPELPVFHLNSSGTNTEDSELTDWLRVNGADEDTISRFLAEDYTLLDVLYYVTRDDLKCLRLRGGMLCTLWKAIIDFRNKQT
From the text: The inhibitory effect of the compound of the invention on ASK1 may be evaluated by evaluating the phosphorylating activity of the enzyme on a known substrate with or without the presence of the test compound. Example B provides such an assay where myelin basic protein (Wako) is used as substrate and detection is by scintillation counting. It should be understood other substrates and detection mechanism may be used. A commercially available a kit, Cisbio's HTRF® KinEASE™ STK kit, has shown to be useful for evaluating ASK1 activity. The assay uses an anti-phosphoseric specific, Eu3+-Cryptate labeled antibody to mark the phosphorylated product of ASK1 on a biotinylated kinase substrate, and detection is by time resolved fluorescence using XL665 labeled streptavidin. The fluorescence intensity is proportional to the amount of product formation. Example C provides the assay protocol.
Cloning of cDNA encoding human ASK1 was conducted by PCR using primers, 5′-[…] […]-3 (SEQ ID NO: 1) and 5′-AAAGCGGCCGCTCAA […]-3′ (SEQ ID NO: 2), from human heart cDNA library (Becton, Dickinson and Company). The PCR product was subjected to agarose gel (1%) electrophoresis, a 2.2 kb DNA fragment containing an ASK1 gene was recovered from the gel, and then digested with restriction enzymes, NotI and SalI, and inserted into a plasmid pFASTBAC1 (Invitrogen) to prepare a plasmid pFB-ASK1. The insert was verified by sequencing. Recombinant baculovirus was prepared according to the procedure of the Bac-to-Bac baculovirus expression system (Invitrogen).
Sf-21 cells were seeded to achieve 1×10^6 cells/mL in 100 mL of Sf-900 II SFM medium (Invitrogen) which contains 10% fetal calf serum and then cultured at 27° C. for 24 hrs. To express ASK1 in cells, 0.15 mL of the recombinant baculovirus virus stock was added to cells, and the then cultured for 60 hrs. The cells were separated from the culture solution by centrifugation at 3000 rpm for 10 min and washed once with PBS. The cells were suspended in 10 mL of lysis buffer (25 mM HEPES (pH 7.5), 1% Triton X, 130 mM NaCl, 1 mM EDTA, 1 mM DTT, 25 mM β-glycerophosphate, Protease inhibitor complete (Roche), 1 mM sodium orthovanadate) and ruptured by four times of treatment with a homogenizer (POLYTRON) at 20000 rpm for 30 seconds. Active ASK1 protein was purified from a supernatant obtained by centrifugal separation at 40000 rpm for 45 min using anti-FLAG M2 Affinity Gel (Sigma).
The test compounds (2.5 μL) dissolved in DMSO were added to wells containing 37.5 μl of the reaction solution (25 mM HEPES (pH 7.5), 10 mM magnesium acetate, 1 mM DTT) including 30 ng of active ASK1 protein and 1 μg of myelin basic protein (Wako), and incubated at room temperature for 5 min. To start the reaction, 10 μL of ATP solution (2.5 μM ATP, 0.1 μCi [γ-^32P]ATP) was added to wells. After incubating at room temperature for 30 min, the reaction was terminated by adding 50 μl of 20% TCA solution. The reaction solution was incubated at 4° C. for 30 min and an acid-insoluble fraction was transferred onto a GF/C filter (Packard) with Cell Harvester (Packard), and washed with 250 mM phosphoric acid. After drying at 45° C. for 60 min., 40 μL of Microscint 0 (Packard) was added and the radioactivity was measured with TopCount (Packard). The concentrations (IC50 value) of the test compounds necessary for 50% inhibition of kinase activity were calculated by PRISM 3.0 (Graphpad Software).
The enzyme activities of the compounds of the present invention against ASK1 were determined using the assay disclosed in Example A and B. The resulted IC50 values are reported in Table 1.

Structure (SMILES) | IC50 [nM]
O=C(Nc1nc2ccc(-c3cn[nH]c3)nc2s1)c1ccc(C2CC2)cc1 [Compound 5, N-(5-(1H-pyrazol-4-yl)thiazolo[5,4-b]pyridin-2-yl)-4-cyclopropylbenzamide] | > 1000
CC(C)(O)c1ccc(C(=O)Nc2nc3ccc(-n4ccnc4)nc3s2)cc1 [Compound 7, N-(5-(1H-imidazol-1-yl)thiazolo[5,4-b]pyridin-2-yl)-4-(2-hydroxypropan-2-yl)benzamide] | 100 to 1000
CC(C)(O)c1ccc(C(=O)Nc2nc3ccc(N4CCCC4)nc3s2)cc1 [Compound 8, 4-(2-hydroxypropan-2-yl)-N-(5-(pyrrolidin-1-yl)thiazolo[5,4-b]pyridin-2-yl)benzamide] | > 1000
CC(C)(C)c1ccc(C(=O)Nc2nc3ccc(-c4cn[nH]c4)nc3s2)cc1 [Compound 9, N-(5-(1H-pyrazol-4-yl)thiazolo[5,4-b]pyridin-2-yl)-4-tert-butylbenzamide] | < 100
CC(C)(C)c1ccc(C(=O)Nc2nc3ccc(-c4ccncc4)nc3s2)cc1 [Compound 10, 4-tert-butyl-N-(5-(pyridin-4-yl)thiazolo[5,4-b]pyridin-2-yl)benzamide] | 100 to 1000
CC(C)(C)c1ccc(C(=O)Nc2nc3ccc(-n4ccnc4)nc3s2)cc1 [Compound 11, N-(5-(1H-imidazol-1-yl)thiazolo[5,4-b]pyridin-2-yl)-4-tert-butylbenzamide] | 100 to 1000
CC(C)(O)c1ccc(C(=O)Nc2nc3ccc(-c4cn[nH]c4)nc3s2)cc1 [Compound 12, N-(5-(1H-pyrazol-4-yl)thiazolo[5,4-b]pyridin-2-yl)-4-(2-hydroxypropan-2-yl)benzamide] | < 100
CC(C)(CO)c1ccc(C(=O)Nc2nc3ccc(-c4cn[nH]c4)nc3s2)cc1 [Compound 13, N-(5-(1H-pyrazol-4-yl)thiazolo[5,4-b]pyridin-2-yl)-4-(1-hydroxy-2-methylpropan-2-yl)benzamide] | < 100
Cc1n[nH]c(C)c1-c1ccc2nc(NC(=O)c3ccc(C(C)(C)O)cc3)sc2n1 [Compound 14, N-(5-(3,5-dimethyl-1H-pyrazol-4-yl)thiazolo[5,4-b]pyridin-2-yl)-4-(2-hydroxypropan-2-yl)benzamide] | 100 to 1000
Cc1n[nH]cc1-c1ccc2nc(NC(=O)c3ccc(C(C)(C)O)cc3)sc2n1 [Compound 15, 4-(2-hydroxypropan-2-yl)-N-(5-(3-methyl-1H-pyrazol-4-yl)thiazolo[5,4-b]pyridin-2-yl)benzamide] | < 100
Cn1cc(-c2ccc3nc(NC(=O)c4ccc(C(C)(C)O)cc4)sc3n2)cn1 [Compound 19, 4-(2-hydroxypropan-2-yl)-N-(5-(1-methyl-1H-pyrazol-4-yl)thiazolo[5,4-b]pyridin-2-yl)benzamide] | 100 to 1000
COC(=O)c1ccc(C(=O)Nc2nc3ccc(-c4c[nH]nc4C)nc3s2)cc1 [Compound 20, methyl 4-(5-(3-methyl-1H-pyrazol-4-yl)thiazolo[5,4-b]pyridin-2-ylcarbamoyl)benzoate] | > 1000
Cc1n[nH]cc1-c1ccc2nc(NC(=O)c3ccc(C(C)(C)CO)cc3)sc2n1 [Compound 21, 4-(1-hydroxy-2-methylpropan-2-yl)-N-(5-(3-methyl-1H-pyrazol-4-yl)thiazolo[5,4-b]pyridin-2-yl)benzamide] | < 100
CCc1nccn1-c1ccc2nc(NC(=O)c3ccc(C(C)(C)O)cc3)sc2n1 [Compound 22, N-(5-(2-ethyl-1H-imidazol-1-yl)thiazolo[5,4-b]pyridin-2-yl)-4-(2-hydroxypropan-2-yl)benzamide] | > 1000
Cc1cnccc1-c1ccc2nc(NC(=O)c3ccc(C(C)(C)CO)cc3)sc2n1 [Compound 26, 4-(1-hydroxy-2-methylpropan-2-yl)-N-(5-(3-methylpyridin-4-yl)thiazolo[5,4-b]pyridin-2-yl)benzamide] | 100 to 1000
CC(C)(O)c1ccc(C(=O)Nc2nc3ccc(-c4ccncc4)nc3s2)cc1 [Compound 30, 4-(2-hydroxypropan-2-yl)-N-(5-(pyridin-4-yl)thiazolo[5,4-b]pyridin-2-yl)benzamide] | 100 to 1000
CC(C)(CO)c1ccc(C(=O)Nc2nc3ccc(-c4ccc(O)nc4)nc3s2)cc1 [Compound 33, 4-(1-hydroxy-2-methylpropan-2-yl)-N-(5-(6-hydroxypyridin-3-yl)thiazolo[5,4-b]pyridin-2-yl)benzamide] | < 100
CC(C)(CO)c1ccc(C(=O)Nc2nc3ccc(-c4ccncc4)nc3s2)cc1 [Compound 34, 4-(1-hydroxy-2-methylpropan-2-yl)-N-(5-(pyridin-4-yl)thiazolo[5,4-b]pyridin-2-yl)benzamide] | 100 to 1000
CC(C)(O)c1ccc(C(=O)Nc2nc3ccc(-c4ccc(O)nc4)nc3s2)cc1 [Compound 35, 4-(2-hydroxypropan-2-yl)-N-(5-(6-hydroxypyridin-3-yl)thiazolo[5,4-b]pyridin-2-yl)benzamide] | < 100
CC(C)(O)c1ccc(C(=O)Nc2nc3ccc(N4CC[C@@H](O)C4)nc3s2)cc1 [Compound 36, (R)-4-(2-hydroxypropan-2-yl)-N-(5-(3-hydroxypyrrolidin-1-yl)thiazolo[5,4-b]pyridin-2-yl)benzamide] | > 1000
CC(C)(O)c1ccc(C(=O)Nc2nc3ccc(N4CCCCC4)nc3s2)cc1 [Compound 38, 4-(2-hydroxypropan-2-yl)-N-(5-(piperidin-1-yl)thiazolo[5,4-b]pyridin-2-yl)benzamide] | > 1000

same assay, conditions: assay described in Example B, read-out: IC50 value

Structure (SMILES) | IC50 [nM]
CC(C)(O)c1ccc(C(=O)Nc2nc3ccc(-c4ccncc4)nc3s2)cc1 [Compound 30, 4-(2-hydroxypropan-2-yl)-N-(5-(pyridin-4-yl)thiazolo[5,4-b]pyridin-2-yl)benzamide] | 310
